The nature of one data set: in vivo. Particulars: male, C57BL/6, mouse.
In data set [1] the test system is 15 types of human cancer cells. The data set can be described thus: Cell growth inhibition test, MTT, average GI 50. In kind it is cell-based. Conditions: average of 15 human cancer cell types, 48 hours exposure. As to the method:
Appropriate amounts of each of the human cancer cells suspended in 5% fetal bovine serum-supplemented medium were plated into a 96-well plate, and allowed to adhere to the wells in a 37° C. CO2 incubator overnight.
These cancer cells were exposed to each anticancer agent for 48 hours. Cell growth was assayed by MTT. Absorbance of the control well (C) and the test well (T) was measured at 550 nm.
The absorbance of the test well immediately after adding the drug (TO) was also measured. Using these measured values, GI 50 of each drug was calculated, and the drug concentration at that time was obtained. For comparison, a similar test was performed for each of the anticancer agents (Comparative Tests 4-1 to 4-7).

The subject of another data set is C57BL/6 male mouse. Conditions: for deaths versus administered animals: one-time.
In data set [2] the test system is OVCAR-3 ovarian cancer cells. The data set can be described thus: Antitumor test, transplanted tumor in nude mice. Conditions: control, drug without hydroxyapatite adsorption. It is filed as in vivo, human. From the text:
(§1) (Experimental Test 5-1 to 5-5).
(§2) Female nude mice (7 weeks old, 16 to 22 g) with a BALB/c genetic background were used for the tests. Human cancer cells used for the tests were GCIY stomach cancer cells, HCT-15 colon cancer cells, A549 lung cancer cells, and OVCAR-3 ovarian cancer cells. Human cancer cells were subcutaneously transplanted into nude mice, tumor lumps were formed, and these carcinomas were used for the tests.
(§3) Aseptically collected tumors were sliced into tumors of 3×3×3 mm, and then subcutaneously transplanted into a new nude mouse. When the tumors reached a volume of 100 to 300 mm^3, the animals were arbitrarily divided into groups of six (Day 0). […] Intravascular administration was the administration route for all.
(§4) After administration, between Days 24 to 31, the length (L) and width (W) of the tumor lump of the animal were measured twice a week, and the tumor volume (TV) was calculated according to the following formula: TV=(L×W^2)/2. Antitumor effect was determined at Day 14. The relative tumor volume (RTV) was obtained by the following formula: RTV=TV14/TV0, using values of the tumor volume at Day 0 and Day 14 (referred to as TV0 and TV14). Antitumor effect was evaluated as the tumor regression rate at Day 14 (T/C%). Herein, T/C %=100×(average RTV of the treated group)/(RTV of the control group).
(§5) As a control, each drug was tested without hydroxyapatite adsorption (Comparative Tests 5-10 to 5-14).

For data set [3], the system named is HCT-15 colon cancer cells. The data set can be described thus: Antitumor test, transplanted tumor in nude mice. In kind it is in vivo, human. Conditions: control, drug without hydroxyapatite adsorption.
Excerpt: as §1, §2, §3, §4, §5

In a further data set the test system is A549 lung cancer cells. Nature of the data set: Antitumor test, transplanted tumor in nude mice. In kind it is in vivo, human. Conditions: control, drug without hydroxyapatite adsorption.
Excerpt: as §1, §2, §3, §4, §5

The subject of data set [4] is GCIY stomach cancer cells. The data set can be described thus: Antitumor test, transplanted tumor in nude mice. Particulars: control, drug without hydroxyapatite adsorption. In kind it is in vivo, human.
Excerpt: as §1, §2, §3, §4, §5

Where [5] appears, read: intravascular, one-time administration, 14 days observation.
[6] abbreviates: 400 mg/kg oral, antitumor agent alone, 14 days observation.
Setting [7] is: 600 mg/kg oral, antitumor agent alone, 14 days observation.
[8] abbreviates: 800 mg/kg oral, antitumor agent alone, 14 days observation.
Where [9] appears, read: 1000 mg/kg oral, antitumor agent alone, 14 days observation.

Structures can show the parent of a compound that is named as a salt. Where two headings read alike, the source gives them in different places.
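For LD50 in this document: mice given a single dose and followed for 14 days, with deaths tallied, LD50 derived from the doses given and the resulting death counts.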
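For deaths versus administered animals in this document: mice given a single dose and followed for 14 days, with deaths tallied, LD50 derived from the doses given and the resulting death counts.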

As for `CS(=O)(=O)OCCCCOS(C)(=O)=O` [Busulphan], the 50% lethal dose (LD50) at 14 days in the data set “in vivo” (po) was 40 mg/kg.
In turn, `N.N.O=C([O-])C1(C(=O)[O-])CCC1.[Pt+2]` [Carboplatin] registered a 50% growth inhibitory concentration (GI50) in data set [1] of 75.7 µM. For the same molecule, the “deaths versus administered animals” value with C57BL/6 male mouse (70 mg/kg intravascular, 14 days observation) was 0/6; with C57BL/6 male mouse (80 mg/kg intravascular, 14 days observation), 1/7; with C57BL/6 male mouse (90 mg/kg intravascular, 14 days observation), 3/6; in the data set with C57BL/6 male mouse (100 mg/kg intravascular, 14 days observation), 5/8; in the data set on C57BL/6 male mouse (110 mg/kg intravascular, 14 days observation) it was 7/8; in the data set on C57BL/6 male mouse (120 mg/kg intravascular, 14 days observation), 7/7. Moreover, the median lethal dose (LD50) in the data set on C57BL/6 male mouse (setting [5]) is given as 93.0 mg/kg; with C57BL/6 male mouse (oral, antitumor agent alone (comparison), one-time administration, 14 days observation), 350 mg/kg.
As for `COC(COC(N)=O)C1=C(N2CC2)C(=O)C(C)=C(N2CC2)C1=O` (stereo not shown) [Carboquone], the LD50 in the data set “in vivo” was determined as 5.8 mg/kg.
In data set [1], `N.N.[Cl][Pt][Cl]` [Cisplatin] displayed a GI50 of 7.21 µM. Besides, the “deaths versus administered animals” value is listed as 1/8 with C57BL/6 male mouse (5.0 mg/kg intravascular, 14 days observation); 2/7 in the data set with C57BL/6 male mouse (7.5 mg/kg intravascular, 14 days observation); 5/8 with C57BL/6 male mouse (10 mg/kg intravascular, 14 days observation); 6/8 in the data set on C57BL/6 male mouse (12.5 mg/kg intravascular, 14 days observation); 5/6 with C57BL/6 male mouse (15 mg/kg intravascular, 14 days observation); 6/6 with C57BL/6 male mouse (17.5 mg/kg intravascular, 14 days observation). The “Regression rate of transplanted cancer (T/C %) at Day 14” value is listed as 67% in data set [2], 53% in data set [3], 79% with A549 lung cancer cells and 67% in data set [4].
In turn, `O=P1(N(CCCl)CCCl)NCCCO1` (stereo not shown) [Cyclophosphamide] came in with an LD50 in “in vivo” of 140 mg/kg. The “Regression rate of transplanted cancer (T/C %) at Day 14” value turned out to be 71% in data set [2], 52% in data set [3], 86% with A549 lung cancer cells and 78% in data set [4].
Regarding `CCCCCCCCCCCCCCCCCCOP(=O)([O-])OC[C@H]1O[C@@H](n2ccc(N)nc2=O)[C@@H](O)[C@@H]1O.[Na+]` [Cytarabine ocfosfate], the “deaths versus administered animals” value is given as 0/5 in the data set with C57BL/6 male mouse (250 mg/kg oral, antitumor agent alone, 14 days observation); 1/5 in the data set with C57BL/6 male mouse (300 mg/kg oral, antitumor agent alone, 14 days observation); 2/5 in the data set on C57BL/6 male mouse (setting [6]); 2/5 with C57BL/6 male mouse (500 mg/kg oral, antitumor agent alone, 14 days observation); 3/5 in the data set with C57BL/6 male mouse (setting [7]); 3/5 with C57BL/6 male mouse (700 mg/kg oral, antitumor agent alone, 14 days observation). The entries for the “deaths versus administered animals” value in the data set with C57BL/6 male mouse (setting [8]) and in the data set on C57BL/6 male mouse (setting [9]) were 4/5 and 5/5, respectively. The molecule also registered an LD50 in the data set on C57BL/6 male mouse (mouse, in vivo, po) of 524 mg/kg.
In the case of `CN(C)/N=N/c1[nH]cnc1C(N)=O` [Dacarbazine], the LD50 in the data set “in vivo” came out at 452 mg/kg.
In the case of `C[C@H]1O[C@@H](n2cc(F)c(=O)[nH]c2=O)[C@H](O)[C@@H]1O` [Doxifluridine], in “in vivo” (po), the LD50 was determined as 1200 mg/kg.
For the molecule `C[C@]12CC[C@@H]3c4ccc(OC(=O)N(CCCl)CCCl)cc4CC[C@H]3[C@@H]1CC[C@@H]2OP(=O)(O)O` [Estramustine sodium phosphate], the LD50 in “in vivo” (po) came to 380 mg/kg.
Regarding `CC(C)C(=O)Nc1ccc([N+](=O)[O-])c(C(F)(F)F)c1` [Flutamide], the LD50 in “in vivo” (po) turned out to be 772 mg/kg.
As to `CC(C)C[C@H](NC(=O)[C@@H](COC(C)(C)C)NC(=O)[C@H](Cc1ccc(O)cc1)NC(=O)[C@H](CO)NC(=O)[C@H](Cc1c[nH]c2ccccc12)NC(=O)[C@H](Cc1cnc[nH]1)NC(=O)[C@@H]1CCC(=O)N1)C(=O)N[C@@H](CCCNC(=N)N)C(=O)N1CCC[C@H]1C(=O)NNC(N)=O` [Goserelin acetate], in the data set “in vivo” (sc), the median lethal dose (LD50) was found to be 36 mg/kg.
`NC(=O)NO` [Hydroxycarbamide] had a median lethal dose (LD50) in the data set “in vivo” (po) of 2350 mg/kg.
For the molecule `O=P1(NCCCl)OCCCN1CCCl` (stereo not shown) [Ifosfamide], the LD50 in “in vivo” came to 325 mg/kg; in “in vivo” (po) it was 996 mg/kg.
`N[C@@H](Cc1ccc(N(CCCl)CCCl)cc1)C(=O)O` [Melphalan] registered a 50% lethal dose (LD50) in the data set “in vivo” of 21 mg/kg.
`Sc1ncnc2nc[nH]c12` [Mercaptopurine]: the LD50 in “in vivo” (po) is 1090 mg/kg.
Take `CN(Cc1cnc2nc(N)nc(N)c2n1)c1ccc(C(=O)N[C@@H](CCC(=O)O)C(=O)O)cc1` [Methotrexate]: the LD50 in “in vivo” (ip) came out at 74 mg/kg.
With `CO[C@@]12[C@H](COC(N)=O)C3=C(C(=O)C(C)=C(N)C3=O)N1C[C@@H]1N[C@@H]12` [Mitomycin C], in data set [1], the GI50 was 1.43 µM.
`CC(=O)O[C@H]1C(=O)[C@@]2(C)[C@H]([C@H](OC(=O)c3ccccc3)[C@]3(O)C[C@H](OC(=O)[C@H](O)[C@@H](NC(=O)c4ccccc4)c4ccccc4)C(C)=C1C3(C)C)[C@]1(OC(C)=O)CO[C@@H]1C[C@@H]2O` [Paclitaxel]: the LD50 in “in vivo” turned out to be 12 mg/kg.
Consider `CC(C)COC(=O)OCN1C(=O)CN(CCN2CC(=O)N(COC(=O)OCC(C)C)C(=O)C2)CC1=O` [Sobuzoxane], for which the “deaths versus administered animals” value is recorded as 0/5 in the data set on C57BL/6 male mouse (200 mg/kg oral, antitumor agent alone, 14 days observation); 1/5 in the data set with C57BL/6 male mouse (setting [6]); 1/6 in the data set on C57BL/6 male mouse (setting [7]); 2/5 in the data set with C57BL/6 male mouse (setting [8]); 3/5 in the data set with C57BL/6 male mouse (setting [9]); 4/5 in the data set on C57BL/6 male mouse (1200 mg/kg oral, antitumor agent alone, 14 days observation). In the data set with C57BL/6 male mouse (1400 mg/kg oral, antitumor agent alone, 14 days observation), the “deaths versus administered animals” value is reported as 6/6.
On to `O=c1[nH]c(=O)n(C2CCCO2)cc1F` (stereo not shown) [Tegafur], for which, in the data set “in vivo” (ip), the LD50 stood at 750 mg/kg.
Regarding `S=P(N1CC1)(N1CC1)N1CC1` [Thiotepa], the 50% lethal dose (LD50) in the data set “in vivo” is 16.1 mg/kg.
The molecule `CN(C)CCOc1ccc(/C(=C(/CCCl)c2ccccc2)c2ccccc2)cc1` [Toremifene citrate] showed a 50% lethal dose (LD50) in the data set “in vivo” (po) of 360 mg/kg.
Molecule `CC1=C(/C=C/C(C)=C/C=C/C(C)=C/C(=O)O)C(C)(C)CCC1` [Tretinoin] returned an LD50 in “in vivo” (po) of 549 mg/kg.
Regarding `CC[C@]1(O)C[C@@H]2CN(CCc3c([nH]c4ccccc34)[C@@](C(=O)OC)(c3cc4c(cc3OC)N(C)[C@H]3[C@@](O)(C(=O)OC)[C@H](OC(C)=O)[C@]5(CC)C=CCN6CC[C@]43[C@@H]65)C2)C1` [Vinblastine sulfate], the LD50 in the data set “in vivo” was 5.6 mg/kg; in “in vivo” (po), 427 mg/kg.
In “in vivo”, `CCC1=C[C@@H]2CN(C1)Cc1c([nH]c3ccccc13)[C@@](C(=O)OC)(c1cc3c(cc1OC)N(C)[C@H]1[C@@](O)(C(=O)OC)[C@H](OC(C)=O)[C@]4(CC)C=CCN5CC[C@]31[C@@H]54)C2` [Vinorelbine tartrate] displayed an LD50 of 2.3 mg/kg.
`CCC1=C[C@@H]2CN(C1)Cc1c([nH]c3ccccc13)[C@@](C(=O)OC)(c1cc3c(cc1OC)N(C)[C@H]1[C@@](O)(C(=O)OC)[C@H](OC(C)=O)[C@]4(CC)C=CCN5CC[C@]31[C@@H]54)C2` [Vinorelbine] came in with a median lethal dose (LD50) in the data set “in vivo” (ip) of 29 mg/kg.
Take Bleomycin hydrochloride: the “deaths versus administered animals” value is on record as 0/5 in the data set with C57BL/6 male mouse (200 mg/kg intravascular, 14 days observation); 1/6 in the data set on C57BL/6 male mouse (250 mg/kg intravascular, 14 days observation); 3/7 in the data set on C57BL/6 male mouse (300 mg/kg intravascular, 14 days observation); 4/6 with C57BL/6 male mouse (350 mg/kg intravascular, 14 days observation); 4/5 with C57BL/6 male mouse (400 mg/kg intravascular, 14 days observation); 5/6 in the data set with C57BL/6 male mouse (500 mg/kg intravascular, 14 days observation). Besides, the “deaths versus administered animals” value in the data set on C57BL/6 male mouse (600 mg/kg intravascular, 14 days observation) was 6/6. The median lethal dose (LD50) with C57BL/6 male mouse (setting [5]) is on record as 322.7 mg/kg.

B1: Neocarzinostatin (protein, UniProt P0A3R9 35-147, looked up)
Neocarzinostatin: AAPTATVTPSSGLSDGTVVKVAGAGLQAGTAYDVGQCAWVDTGVLACNPADFSSVTADANGSASTSLTVRRSFEGFLFDGTRWGTVDCTTAACQVGLSDAAGNGPEGVAISFN
modifications: enediyne chromophore
B1 returned an LD50 in the data set with C57BL/6 male mouse (intraperitoneal, one-time administration, 14 days observation) of 1050 mg/kg.

One may read the LD50 as the dose at which mortality reaches 50%. A higher LD50 goes with lower toxicity. The term GI50 denotes the concentration giving 50% growth inhibition. Lower therefore signals more potent growth inhibition.

Values taken from patent publication US20080138437A1, “Antitumor Agent” (priority 2004, published 2008).
